Biological target: Carbonic anhydrase 12 (Homo sapiens, UniProt O43570)
Sequence (O43570 whole entry): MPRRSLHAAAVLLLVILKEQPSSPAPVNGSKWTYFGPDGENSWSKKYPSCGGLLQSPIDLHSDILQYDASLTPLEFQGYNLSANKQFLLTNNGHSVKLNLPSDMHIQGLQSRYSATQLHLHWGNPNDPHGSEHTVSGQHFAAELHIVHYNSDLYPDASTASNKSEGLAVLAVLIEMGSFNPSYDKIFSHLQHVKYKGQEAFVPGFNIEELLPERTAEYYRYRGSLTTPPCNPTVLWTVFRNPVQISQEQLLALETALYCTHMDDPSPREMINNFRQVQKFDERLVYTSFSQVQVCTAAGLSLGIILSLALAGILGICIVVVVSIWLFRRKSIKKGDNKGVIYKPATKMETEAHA
Description: Inhibitory activity against cloned human CA12

- Ki: 18 nM
Compound: Cc1ccc(-c2cc(C(F)(F)F)nn2-c2ccc(S(N)(=O)=O)cc2)cc1 [CELECOXIB]
